Data set [1] in a line: DOX pharmacokinetics after i.v. administration. As to conditions: 5 mg DOX/kg.
The next data set has as its system 4T1.2 tumor. As to the kind of experiment: In vivo antitumor efficacy, 4T1.2 syngeneic murine breast cancer model. As to conditions: 10 mg DOX/kg i.v., three consecutive injections. The arrangement: species or system female BALB/c mice.
For the next data set, the system named is KB 8-5 xenograft tumor. As to the kind of experiment: In vivo antitumor efficacy, drug-resistant KB 8-5 xenograft. On the set-up: species or system female nude mice. To be noted: for Tumor growth inhibition rate IR: based on RTV on day 22.
The next data set has as its system 4T1.2 cells. As to the kind of experiment: In vitro cytotoxicity, MTT assay. In kind it is cell-based, mouse. To be noted: 72 h, DOX concentration. (Tetrazolium assays rely on reduction of a dye to a coloured formazan, in cell work by metabolically active cells.)
Another data set deals with NCI/ADR-RES cells. Nature of the data set: Intracellular uptake of DOX. In kind it is cell-based. As to conditions: 6 μg/mL DOX, 1 h (similar at 3 h).
For data set [2] the following is noted: single i.v.; for Animal death: dead/treated mice.
Data set [3] is described as follows: In vitro DOX cumulative release kinetics by dialysis. It counts as physicochemical. To be noted: DPBS pH 7.4 with 0.5% Tween 80, 37 °C, 1 mg DOX/mL.
The next data set has as its system PC-3 xenograft tumor. As to the kind of experiment: In vivo antitumor efficacy, PC-3 human prostate cancer xenograft. On the set-up: species or system male nude mice. To be noted: 5 mg/kg i.v. on days 1, 4, 7; based on RTV on day 19. (In general: A xenograft is tissue or cells of one species grown in another, often human tumour cells in immunodeficient mice.)

In general, AUC refers to the area under the concentration-time curve, a measure of exposure. A higher AUC goes with more exposure. A word on the Vd: it is a proportionality between amount in the body and measured concentration, not a real space. Low values mean little distribution into tissue, high ones wide distribution into tissue. As a reminder, the IC50 is the midpoint of a concentration-inhibition curve.

In brackets after ≈: the same amount, converted by molar mass. Where two headings read alike, the source gives them in different places.

Regarding `COc1cccc2c1C(=O)c1c(O)c3c(c(O)c1C2=O)C[C@@](O)(C(=O)CO)C[C@@H]3O[C@H]1C[C@H](N)[C@H](O)[C@H](C)O1` [DOX, Doxorubicin], the AUC in data set [1] was found to be 5430 ± 110 ng·h/mL. The CL in data set [1] was 18.40 ± 2.39 mL/h. The distribution volume (Vd) in data set [1] was determined as 25.32 ± 2.15 mL. Moreover, the t1/2 in data set [1] (non-compartment model) stood at 4.20 ± 0.35 h. In the data set on 4T1.2 tumor, the “mortality from systemic toxicity” value was “all of the mice treated with free DOX died from systemic toxicity on day 7”. The “Tumor growth inhibition rate IR” value with KB 8-5 xenograft tumor (5 mg/kg i.v. on days 1, 4, 7) was 6.13%; with KB 8-5 xenograft tumor (7.5 mg/kg i.v. on days 1, 4, 7) it was 20.91%; with PC-3 xenograft tumor it was 38.72%. For the same molecule, the body weight change entry with KB 8-5 xenograft tumor (5 and 7.5 mg/kg i.v. on days 1, 4, 7) is “significant weight loss”. For the same molecule, the IC50 in the data set with 4T1.2 cells is 0.1867 µg/mL (≈ 0.343 µM). In addition, in the data set with NCI/ADR-RES cells, the “DOX fluorescence signals in cells (confocal imaging)” value is “Least amounts of fluorescence signals”. Besides, the Weight loss in data set [2] (5 mg/kg) was determined as 2.2%; in data set [2] (10 mg/kg), 7.8%. The Animal death in data set [2] (5 mg/kg) is on record as 0/3; in data set [2] (10 mg/kg) it was 0/3; in data set [2] (15 mg/kg), 2/3; in data set [2] (15 mg/kg, listed as free DOX), 2 out of 3. Further, the “amount of released DOX” value in data set [3] (after 74 h) stood at 96.35%. For the same molecule, in data set [3] (first 9 h), the DOX released was 92.14%.
